Broadly, the IC50 is the point on the concentration scale where inhibition reaches its midpoint.

Where a name gives a salt, the structure may show the parent alone. Read-outs that look alike come from different tables or passages of the source.

Holding throughout (assay type): biochemical
Assay [1] deals with T1, human JAK1 (a.a. 837-1142) (Homo sapiens, UniProt P23458).
T1 construct: human JAK1 (a.a. 837-1142); His tag (N); made in house; host or cells: insect cells (baculovirus)
The assay can be described thus: In vitro JAK kinase assay (HTRF, phosphorylation of a biotinylated peptide), JAK1. In a few lines:
(§1)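 Kinase reactions ran at room temperature for 1 h with ATP matched per isoform (JAK1 90 μM, JAK2 30 μM, JAK3 3 μM). After an EDTA stop, the phosphorylated biotin-peptide was read by HTRF using Eu-Py20 and SA-APC after 40 min binding.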
In general terms: Time-resolved FRET reads energy transfer from a long-lived donor to a nearby acceptor.

For assay [2], the target named is T2, human JAK2 (a.a. 828-1132) (Homo sapiens, UniProt O60674).
T2 construct: JAK2 (a.a. 828-1132); His tag (N); made in house; host or cells: insect cells (baculovirus)
T2 sequence (O60674 828-1132): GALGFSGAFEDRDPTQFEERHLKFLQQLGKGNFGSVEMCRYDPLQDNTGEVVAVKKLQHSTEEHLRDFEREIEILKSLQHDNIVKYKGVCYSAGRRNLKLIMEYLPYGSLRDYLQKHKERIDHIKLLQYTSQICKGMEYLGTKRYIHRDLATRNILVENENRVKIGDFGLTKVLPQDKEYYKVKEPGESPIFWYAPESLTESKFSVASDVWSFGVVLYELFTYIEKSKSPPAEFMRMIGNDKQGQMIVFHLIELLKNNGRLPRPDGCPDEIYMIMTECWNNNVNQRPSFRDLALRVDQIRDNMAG
The assay can be described thus: In vitro JAK kinase assay (HTRF, phosphorylation of a biotinylated peptide), JAK2. The method in brief: as §1

For assay [3], the target named is T3, human JAK3 (a.a. 781-1124) (Homo sapiens, UniProt P52333).
T3 construct: JAK3 (a.a. 781-1124); His tag (N); made in house; host or cells: insect cells (baculovirus)
T3 sequence (P52333 781-1124): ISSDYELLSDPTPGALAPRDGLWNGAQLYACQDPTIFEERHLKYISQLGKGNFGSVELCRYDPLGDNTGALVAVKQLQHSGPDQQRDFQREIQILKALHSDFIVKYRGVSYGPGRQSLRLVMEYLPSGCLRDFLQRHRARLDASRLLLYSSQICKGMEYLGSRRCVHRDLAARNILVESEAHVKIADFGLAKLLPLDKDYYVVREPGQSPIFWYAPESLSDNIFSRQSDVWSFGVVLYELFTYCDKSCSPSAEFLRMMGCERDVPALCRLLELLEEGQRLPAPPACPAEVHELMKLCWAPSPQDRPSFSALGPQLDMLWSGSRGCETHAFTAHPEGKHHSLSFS
The assay can be described thus: In vitro JAK kinase assay (HTRF, phosphorylation of a biotinylated peptide), JAK3. The method in brief:
as §1

A further assay deals with TYK2 (Homo sapiens, UniProt P29597). Description: TYK2 kinase inhibition (Table A1).
Sequence of TYK2 (P29597 whole entry): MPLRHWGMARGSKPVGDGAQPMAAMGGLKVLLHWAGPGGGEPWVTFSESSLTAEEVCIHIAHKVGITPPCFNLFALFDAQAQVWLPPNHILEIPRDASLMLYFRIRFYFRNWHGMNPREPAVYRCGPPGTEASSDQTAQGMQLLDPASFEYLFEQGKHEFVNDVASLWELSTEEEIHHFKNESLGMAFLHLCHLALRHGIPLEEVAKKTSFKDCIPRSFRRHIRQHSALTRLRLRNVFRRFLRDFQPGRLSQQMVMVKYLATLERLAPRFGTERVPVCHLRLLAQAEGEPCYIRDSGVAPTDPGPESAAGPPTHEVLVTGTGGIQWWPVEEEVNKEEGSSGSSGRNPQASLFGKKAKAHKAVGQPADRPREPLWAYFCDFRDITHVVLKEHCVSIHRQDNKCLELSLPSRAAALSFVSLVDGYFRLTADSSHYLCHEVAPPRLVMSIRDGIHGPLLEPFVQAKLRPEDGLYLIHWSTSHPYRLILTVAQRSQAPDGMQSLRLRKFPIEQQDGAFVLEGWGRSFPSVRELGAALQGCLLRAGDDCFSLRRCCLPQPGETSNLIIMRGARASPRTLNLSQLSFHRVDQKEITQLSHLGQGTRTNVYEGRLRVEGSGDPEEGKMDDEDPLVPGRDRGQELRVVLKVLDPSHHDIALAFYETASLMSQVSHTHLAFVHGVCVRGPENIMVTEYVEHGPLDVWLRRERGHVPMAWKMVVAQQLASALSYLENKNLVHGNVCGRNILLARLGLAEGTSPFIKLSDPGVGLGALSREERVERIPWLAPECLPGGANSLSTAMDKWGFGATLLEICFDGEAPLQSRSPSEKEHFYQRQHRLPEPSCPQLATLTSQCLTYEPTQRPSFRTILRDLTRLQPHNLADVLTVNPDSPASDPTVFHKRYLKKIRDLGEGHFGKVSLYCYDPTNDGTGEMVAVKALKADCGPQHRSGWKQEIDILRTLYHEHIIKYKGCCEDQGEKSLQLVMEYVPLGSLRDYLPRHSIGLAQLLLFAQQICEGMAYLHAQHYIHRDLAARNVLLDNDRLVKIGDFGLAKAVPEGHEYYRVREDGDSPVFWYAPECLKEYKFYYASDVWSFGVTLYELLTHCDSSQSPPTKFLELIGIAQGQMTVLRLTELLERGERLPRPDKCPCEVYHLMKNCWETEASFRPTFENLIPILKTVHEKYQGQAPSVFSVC

T1 sequence (P23458 849-1154): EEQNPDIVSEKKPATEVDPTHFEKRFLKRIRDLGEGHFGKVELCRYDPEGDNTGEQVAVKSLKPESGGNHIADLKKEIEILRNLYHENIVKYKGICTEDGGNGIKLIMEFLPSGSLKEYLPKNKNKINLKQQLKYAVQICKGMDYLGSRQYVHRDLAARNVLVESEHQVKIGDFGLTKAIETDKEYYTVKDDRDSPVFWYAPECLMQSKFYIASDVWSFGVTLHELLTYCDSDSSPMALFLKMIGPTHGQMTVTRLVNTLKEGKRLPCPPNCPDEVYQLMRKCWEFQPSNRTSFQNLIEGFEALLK

`Cc1cc(C(=O)N2CCC(COc3ccc4cc3CCc3cncc(c3)Nc3ncc(Cl)c(n3)N4)C2)no1` (stereo not shown) [Example C58, 6-Chloro-12-({1-[(5-methylisoxazol-3-yl)carbonyl]pyrrolidin-3-yl}methoxy)-2,4,8,18,22-pentaazatetracyclo[14.3.1.1(3,7).1(9,13)]docosa-1(20),3(22),4,6,9(21),10,12,16,18-nonaene bis(trifluoroacetate)]: the IC50 in assay [1] (read-out: JAK1 IC50) was 217 nM; in assay [2], greater than 400 nM; in assay [3] it was greater than 400 nM; against TYK2, greater than 400 nM.
Turning to `O=C(c1cccnc1)N1Cc2cccc(c2)Nc2ncc(Cl)c(n2)Nc2cccc1c2` [Example C27, 6-Chloro-14-(pyridin-3-ylcarbonyl)-2,4,8,14,22-pentaazatetracyclo[14.3.1.1(3,7).1(9,13)]docosa-1(20),3(22),4,6,9(21),10,12,16,18-nonaene], the 50% inhibitory concentration (IC50) in assay [1] (read-out: JAK1 IC50) amounted to 43 nM; in assay [2] it was 59 nM; in assay [3] it was 1290 nM; against TYK2, 501 nM.
In the case of `O=C(c1cnccn1)N1CCC(CCOc2ccc3cc2CCc2cncc(c2)Nc2ncc(Cl)c(n2)N3)CC1` [Example D177, 6-Chloro-12-{2-[1-(pyrazin-2-ylcarbonyl)piperidin-4-yl]ethoxy}-2,4,8,18,22-pentaazatetracyclo[14.3.1.1(3,7).1(9,13)]docosa-1(20),3(22),4,6,9(21),10,12,16,18-nonaene tris(trifluoroacetate)], the IC50 in assay [1] (Table D1, read-out: JAK1 IC50) was 150 nM; in assay [2] (Table D1) it was 265 nM; in assay [3] (Table D1) it was greater than 400 nM; at TYK2 (Table D1), greater than 400 nM.
Regarding `O=C(CC1CCN(c2nc3cccnc3o2)CC1)Nc1ccc2cc1CCc1cccc(c1)Nc1ncc(Cl)c(n1)N2` [Example A126, N-[6-Chloro-2,4,8,22-tetraazatetracyclo[14.3.1.1(3,7).1(9,13)]docosa-1(20),3(22),4,6,9(21),10,12,16,18-nonaen-12-yl]-2-(1-[1,3]oxazolo[5,4-b]pyridin-2-ylpiperidin-4-yl)acetamide bis(trifluoroacetate)], the IC50 in assay [1] (method AA1 (90 μM ATP) or AA2 (1000 μM ATP), not stated per value, read-out: JAK1 IC50) stood at 0.5 nM; in assay [2] (method AA1 (30 μM ATP) or AA2 (1000 μM ATP), not stated per value) it was 2.6 nM; in assay [3] (method AA1 (3 μM ATP) or AA2 (1000 μM ATP), not stated per value), 34 nM; against TYK2, 7.5 nM.
On to `O=C(COc1ccc2cc1CCc1cncc(c1)Nc1ncc(Cl)c(n1)N2)N1CCN(c2cccc(Cl)n2)CC1` [Example D240, 6-Chloro-12-{2-[4-(6-chloropyridin-2-yl)piperazin-1-yl]-2-oxoethoxy}-2,4,8,18,22-pentaazatetracyclo[14.3.1.1(3,7).1(9,13)]docosa-1(20),3(22),4,6,9(21),10,12,16,18-nonaene tris(trifluoroacetate)], for which the concentration for half-maximal inhibition (IC50) in assay [1] (Table D1, read-out: JAK1 IC50) is 255 nM; in assay [2] (Table D1), greater than 400 nM; in assay [3] (Table D1), greater than 400 nM; against TYK2 (Table D1), greater than 400 nM.
Turning to `O=C(COc1ccc2cc1CCc1cncc(c1)Nc1ncc(Cl)c(n1)N2)N1CCN(C(=O)C2CCCO2)CC1` (stereo not shown) [Example D272, 6-Chloro-12-{2-oxo-2-[4-(tetrahydrofuran-2-ylcarbonyl)piperazin-1-yl]ethoxy}-2,4,8,18,22-pentaazatetracyclo[14.3.1.1(3,7).1(9,13)]docosa-1(20),3(22),4,6,9(21),10,12,16,18-nonaene bis(trifluoroacetate)], the IC50 in assay [1] (Table D1, read-out: JAK1 IC50) was 38 nM; in assay [2] (Table D1), 288 nM; in assay [3] (Table D1) it was greater than 400 nM; against TYK2 (Table D1) it was greater than 400 nM.
For the compound `O=C(Cn1c(=O)oc2c3cc(cc21)Nc1nc(ncc1Cl)Nc1cccc(c1)CC3)NCc1ccccc1` [Example D186, N-Benzyl-2-[4-chloro-19-oxo-18-oxa-2,6,8,20,25-pentaazapentacyclo[14.6.1.1(3,7).1(9,13).0(17,21)]pentacosa-1(23),3(25),4,6,9(24),10,12,16,21-nonaen-20-yl]acetamide trifluoroacetate], the IC50 was determined as 53 nM in assay [1] (Table D1, read-out: JAK1 IC50); 40 nM in assay [2] (Table D1); 162 nM in assay [3] (Table D1); 792 nM against TYK2 (Table D1).
`CCS(=O)(=O)N1CCN(C(=O)COc2ccc3cc2CCc2cncc(c2)Nc2ncc(Cl)c(n2)N3)CC1` [Example D263, 6-Chloro-12-{2-[4-(ethylsulfonyl)piperazin-1-yl]-2-oxoethoxy}-2,4,8,18,22-pentaazatetracyclo[14.3.1.1(3,7).1(9,13)]docosa-1(20),3(22),4,6,9(21),10,12,16,18-nonaene bis(trifluoroacetate)]: the IC50 in assay [1] (Table D1, read-out: JAK1 IC50) is 80 nM; in assay [2] (Table D1) it was 180 nM; in assay [3] (Table D1), greater than 400 nM; against TYK2 (Table D1), greater than 400 nM.
As to `O=C(Nc1ccccc1F)N1CCC(CCOc2ccc3cc2CCc2cncc(c2)Nc2ncc(Cl)c(n2)N3)CC1` [Example D170, 4-(2-{[6-Chloro-2,4,8,18,22-pentaazatetracyclo[14.3.1.1(3,7).1(9,13)]docosa-1(20),3(22),4,6,9(21),10,12,16,18-nonaen-12-yl]oxy}ethyl)-N-(2-fluorophenyl)piperidine-1-carboxamide bis(trifluoroacetate)], the IC50 in assay [1] (Table D1, read-out: JAK1 IC50) is 23 nM; in assay [2] (Table D1) it was 130 nM; in assay [3] (Table D1), greater than 400 nM; against TYK2 (Table D1), greater than 400 nM.
Turning to `O=C(Nc1cccnc1)N1CCC(CCOc2ccc3cc2CCc2cncc(c2)Nc2ncc(Cl)c(n2)N3)CC1` [Example D182, 4-(2-{[6-Chloro-2,4,8,18,22-pentaazatetracyclo[14.3.1.1(3,7).1(9,13)]docosa-1(20),3(22),4,6,9(21),10,12,16,18-nonaen-12-yl]oxy}ethyl)-N-pyridin-3-ylpiperidine-1-carboxamide tris(trifluoroacetate)], the IC50 in assay [1] (Table D1, read-out: JAK1 IC50) was 68 nM; in assay [2] (Table D1), 180 nM; in assay [3] (Table D1) it was greater than 400 nM; against TYK2 (Table D1), greater than 400 nM.
Turning to `O=C(CC1CN(C(=O)c2ccn[nH]2)C1)Nc1ccc2cc1CCc1cncc(c1)Nc1ncc(Cl)c(n1)N2` [Example D150, N-[6-Chloro-2,4,8,18,22-pentaazatetracyclo[14.3.1.1(3,7).1(9,13)]docosa-1(20),3(22),4,6,9(21),10,12,16,18-nonaen-12-yl]-2-[1-(1H-pyrazol-5-ylcarbonyl)azetidin-3-yl]acetamide bis(trifluoroacetate)], the IC50 in assay [1] (Table D1, read-out: JAK1 IC50) was 33 nM; in assay [2] (Table D1) it was 136 nM; in assay [3] (Table D1), greater than 1000 nM; on TYK2 (Table D1), 435 nM.
The corresponding values for `O=C(C[C@@H]1CCCN(C(=O)Nc2ccccc2)C1)Nc1ccc2cc1CCc1cncc(c1)Nc1ncc(Cl)c(n1)N2` [Example D198, (3S)-3-(2-{[6-Chloro-2,4,8,18,22-pentaazatetracyclo[14.3.1.1(3,7).1(9,13)]docosa-1(20),3(22),4,6,9(21),10,12,16,18-nonaen-12-yl]amino}-2-oxoethyl)-N-phenylpiperidine-1-carboxamide bis(trifluoroacetate)] are 5.7 nM, 10 nM, 69 nM and 27 nM.
The corresponding values for `N#Cc1ccccc1S(=O)(=O)N1CCC(CCOc2ccc3cc2CCc2cncc(c2)Nc2ncc(Cl)c(n2)N3)CC1` [Example D163, 2-{[4-(2-{[6-Chloro-2,4,8,18,22-pentaazatetracyclo[14.3.1.1(3,7).1(9,13)]docosa-1(20),3(22),4,6,9(21),10,12,16,18-nonaen-12-yl]oxy}ethyl)piperidin-1-yl]sulfonyl}benzonitrilebis(trifluoroacetate)] are 190 nM, greater than 400 nM, greater than 400 nM and greater than 400 nM.
Turning to `CC(=O)N1CCC(CCOc2ccc3cc2CCc2cncc(c2)Nc2ncc(Cl)c(n2)N3)CC1` [Example D161, 12-[2-(1-Acetylpiperidin-4-yl)ethoxy]-6-chloro-2,4,8,18,22-pentaazatetracyclo[14.3.1.1(3,7).1(9,13)]docosa-1(20),3(22),4,6,9(21),10,12,16,18-nonaene bis(trifluoroacetate)], the IC50 in assay [1] (JAK1 IC50 (nM), Table D1) is 85 nM; in assay [2] (Table D1), 276 nM; in assay [3] (Table D1) it was greater than 400 nM; against TYK2 (Table D1), greater than 400 nM.
Turning to `Clc1cnc2nc1Nc1ccc(OCC3CCNC3)c(c1)CCc1cncc(c1)N2` (stereo not shown) [Example C55, 6-Chloro-12-(pyrrolidin-3-ylmethoxy)-2,4,8,18,22-pentaazatetracyclo[14.3.1.1(3,7).1(9,13)]docosa-1(20),3(22),4,6,9(21),10,12,16,18-nonaene trihydrochloride], the half-maximal inhibitory concentration (IC50) is 96 nM in assay [1] (read-out: JAK1 IC50), greater than 400 nM in assay [2], greater than 400 nM in assay [3] and greater than 400 nM at TYK2.
Regarding `O=C(Cc1coc2ccccc12)Nc1ccc2cc1CCc1cccc(c1)Nc1ncc(Cl)c(n1)N2` [Example C47, 2-(1-Benzofuran-3-yl)-N-[6-chloro-2,4,8,22-tetraazatetracyclo[14.3.1.1(3,7).1(9,13)]docosa-1(20),3(22),4,6,9(21),10,12,16,18-nonaen-12-yl]acetamide trifluoroacetate], the IC50 turned out to be 67 nM in assay [1] (read-out: JAK1 IC50), 134 nM in assay [2], 1140 nM in assay [3] and 300 nM at TYK2.
